In general, EC50 refers to the concentration at which the effect is half-maximal. As a reminder, the CC50 is the concentration giving 50% cytotoxicity.

Among the data in patent US6989384B2, “Antipicornaviral compounds and compositions, their pharmaceutical uses, and materials for their synthesis” (Agouron Pharmaceuticals, Inc., priority 2000, dated 2006) are kinact/KI, EC50 and CC50 values, retold here.

Like-named read-outs stand apart in the source and are kept apart here.

The target of series [1] is T1, rhinovirus 3C protease (HRV-2) (Human rhinovirus 2, UniProt P04936).
T1 construct: Recombinant rhinovirus 3C proteases; made in house
The series can be described thus: Inhibition of rhinovirus 3C protease activity (FRET assay), HRV-2. Type of series: biochemical. Conditions: read-out: Protease Inhibition kobs/I. Here is the method: Stock solutions (50 mM, in DMSO) of various compounds were prepared; dilutions were in the same solvent. Recombinant rhinovirus 3C proteases (see Birch et al., “Purification of recombinant human rhinovirus 14 3C protease expressed in Escherichia coli,” Protein Expr. Pur. 1995, 6(5), 609–618) from serotypes 14, 16, and 2 were prepared by the following standard chromatographic procedures: (1) ion exchange using Q Sepharose Fast Flow from Pharmacia; (2) affinity chromatography using Affi-Gel Blue from Biorad; and (3) sizing using Sephadex G-100 from Pharmacia. Each assay sample contained 2% DMSO, 50 mM tris pH 7.6, 1 mM EDTA, a test compound at the indicated concentration, approximately 1 μM substrate, and 50–100 nM protease. The kobs/I values were obtained from reactions initiated by addition of enzyme rather than substrate. RVP activity was measured in the fluorescence resonance energy transfer assay. The substrate was (N-terminal) DABCYL-(Gly-Arg-Ala-Val-Phe-Gln-Gly-Pro-Val-Gly)-EDANS. In the uncleaved peptide, the EDANS fluorescence was quenched by the proximal DABCYL group. When the peptide was cleaved, the quenching was relieved, and activity was measured as an increase in fluorescence signal. In the Table, unless otherwise indicated, all data are for rhinovirus 3C protease from HRV serotype-14 (produced from the infectious cDNA clone constructed by Dr. Robert Rueckert, Institute for Molecular Virology, University of Wisconsin, Madison, Wis.). The data in the column designated kobs/[I] were measured from progress curves in enzyme start experiments.

A further series concerns HRV-14. The series can be described thus: Antirhinoviral H1-HeLa cell culture assay (cell protection, XTT), HRV-14. Conditions: read-out: Cell Protection EC50. Type of series: cell-based, human rhinovirus. Here is the method: (§1) In this cell protection assay, the ability of compounds to protect cells against HRV infection was measured by the XTT dye reduction method, which is described in Weislow et al., J. Natl. Cancer Inst. 1989, vol. 81, 577–586.
(§2) H1-HeLa cells were infected with HRV-14 at a multiplicity of infection (m.o.i.) of 0.13 (virus particles/cell) or mock-infected with medium only. Infected or mock-infected cells were resuspended at 8×10^5 cells per mL, and incubated with appropriate concentrations of the compounds to be tested. Two days later, XTT/PMS was added to test plates and the amount of formazan produced was quantified spectrophotometrically at 450/650 nm. The EC50 value was calculated as the concentration of compound that increased the percentage of formazan production in compound-treated, virus-infected cells to 50% of that produced by compound-free, mock-infected cells. The 50% cytotoxic dose (CC50) was calculated as the concentration of compound that decreased the percentage of formazan produced in compound-treated, mock-infected cells to 50% of that produced by compound-free, mock-infected cells.
(§3) All strains of human rhinovirus (HRV) for use in this assay were purchased from American Type Culture Collection (ATCC), except for HRV serotype-14 (produced from the infectious cDNA clone constructed by Dr. Robert Rueckert, Institute for Molecular Virology, University of Wisconsin, Madison, Wis.). HRV stocks were propagated and viral assays were performed in H1-HeLa cells (ATCC). Cells were grown in minimal essential medium with 10% fetal bovine serum, available from Life Technologies (Gaithersburg, Md.).
(§4) The compounds were tested against control compounds WIN 51711, WIN 52084, and WIN 54954 (obtained from Sterling-Winthrop Pharmaceuticals), Pirodavir (obtained from Janssen Pharmaceuticals), and Pleconaril (prepared according to the method described in Diana et al., J. Med. Chem 1995, vol. 38, 1355). Antiviral data obtained for the test compounds are shown in the Table, where all data are for HRV serotype-14 unless otherwise noted in parentheses.
A general note: Tetrazolium dyes change colour on reduction, which living cells bring about.

The test system of another series is HRV-2. The series can be described thus: Antirhinoviral H1-HeLa cell culture assay (cell protection, XTT), HRV-2. Format: cell-based, human rhinovirus. Conditions: Rhinovirus A, HRV2, 48 h, HRV-2, H1-HeLa cells, two days. Here is the method:
as §1, §2, §3, §4

Series [2] in a line: Cytotoxicity in mock-infected H1-HeLa cells (XTT). Conditions: human, two days, read-out: Toxicity CC50. Type of series: cell-based. Here is the method:
as §1, §2, §3

The target of series [3] is T2, rhinovirus 3C protease from HRV serotype-14 (Human rhinovirus 14, UniProt P03303).
T2 construct: Recombinant rhinovirus 3C proteases; made in house
The series can be described thus: Inhibition of rhinovirus 3C protease activity (FRET assay), HRV-14. Type of series: biochemical. Conditions: read-out: Protease Inhibition kobs/I. The method, boiled down:
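Recombinant 3C protease (50–100 nM) was assayed in 50 mM tris pH 7.6, 1 mM EDTA, 2% DMSO, with about 1 μM DABCYL-GRAVFQGPVG-EDANS FRET substrate. Cleavage was followed as the rise in fluorescence. kobs/[I] was derived from progress curves of enzyme-initiated reactions.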

The test system of a further series is HRV-10. The series can be described thus: Antirhinoviral H1-HeLa cell culture assay (cell protection, XTT), HRV-10. Format: cell-based. Conditions: Human rhinovirus sp., HRV10, 48 h, HRV-10, H1-HeLa cells, two days. Here is the method: as §1, §2, §3, §4
Series [4] has as its target T3, rhinovirus 3C protease (HRV-16) (Human rhinovirus 16, UniProt Q82122).
T3 construct: Recombinant rhinovirus 3C proteases; made in house
The series can be described thus: Inhibition of rhinovirus 3C protease activity (FRET assay), HRV-16. Format: biochemical. Conditions: HRV-16 3C protease; progress curves, enzyme start; read-out: Protease Inhibition kobs/I. Here is the method: Stock solutions (50 mM, in DMSO) of various compounds were prepared; dilutions were in the same solvent. Recombinant rhinovirus 3C proteases (see Birch et al., “Purification of recombinant human rhinovirus 14 3C protease expressed in Escherichia coli,” Protein Expr. Pur. 1995, 6(5), 609–618) from serotypes 14, 16, and 2 were prepared by the following standard chromatographic procedures: (1) ion exchange using Q Sepharose Fast Flow from Pharmacia; (2) affinity chromatography using Affi-Gel Blue from Biorad; and (3) sizing using Sephadex G-100 from Pharmacia. Each assay sample contained 2% DMSO, 50 mM tris pH 7.6, 1 mM EDTA, a test compound at the indicated concentration, approximately 1 μM substrate, and 50–100 nM protease. The kobs/I values were obtained from reactions initiated by addition of enzyme rather than substrate. RVP activity was measured in the fluorescence resonance energy transfer assay. The substrate was (N-terminal) DABCYL-(Gly-Arg-Ala-Val-Phe-Gln-Gly-Pro-Val-Gly)-EDANS. In the uncleaved peptide, the EDANS fluorescence was quenched by the proximal DABCYL group. When the peptide was cleaved, the quenching was relieved, and activity was measured as an increase in fluorescence signal. […] The data in the column designated kobs/[I] were measured from progress curves in enzyme start experiments.

Series [5] has as its target T4, rhinovirus 3C protease (HRV-89) (Human rhinovirus A serotype 89, UniProt P07210).
T4 construct: Recombinant rhinovirus 3C proteases
The series can be described thus: Inhibition of rhinovirus 3C protease activity (FRET assay), HRV-89. Type of series: biochemical, human rhinovirus 89. Conditions: HRV-89 3C protease; progress curves, enzyme start; read-out: Protease Inhibition kobs/I.

Another series deals with HRV-1A. The series can be described thus: Antirhinoviral H1-HeLa cell culture assay (cell protection, XTT), HRV-1A. Format: cell-based, human rhinovirus. Conditions: Rhinovirus A, HRV1A, 48 h, H1-HeLa cells, two days. Here is the method:
as §1, §2, §3, §4

Another series has as its system H1-HeLa cells. The series can be described thus: Cytotoxicity in mock-infected H1-HeLa cells (XTT). Conditions: two days, read-out: Toxicity CC50. Type of series: cell-based. On the procedure:
as §1, §2, §3

Where [6] appears, read: Rhinovirus B, HRV14, H1-HeLa, 48 h.
Setting [7] is: HRV-14, H1-HeLa cells, XTT, two days.

T1 sequence (P04936 1508-1690): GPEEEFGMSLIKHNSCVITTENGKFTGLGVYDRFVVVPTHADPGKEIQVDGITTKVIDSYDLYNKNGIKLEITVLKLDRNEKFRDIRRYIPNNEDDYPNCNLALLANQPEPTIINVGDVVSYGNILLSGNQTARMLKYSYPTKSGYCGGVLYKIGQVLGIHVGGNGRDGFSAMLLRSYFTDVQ
T2 sequence (P03303 1538-1719): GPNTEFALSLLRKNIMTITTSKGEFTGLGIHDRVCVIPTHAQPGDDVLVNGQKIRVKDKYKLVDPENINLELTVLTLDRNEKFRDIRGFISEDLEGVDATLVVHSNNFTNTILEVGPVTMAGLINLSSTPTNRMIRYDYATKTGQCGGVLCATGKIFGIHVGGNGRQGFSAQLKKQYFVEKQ
T3 sequence (Q82122 1511-1693): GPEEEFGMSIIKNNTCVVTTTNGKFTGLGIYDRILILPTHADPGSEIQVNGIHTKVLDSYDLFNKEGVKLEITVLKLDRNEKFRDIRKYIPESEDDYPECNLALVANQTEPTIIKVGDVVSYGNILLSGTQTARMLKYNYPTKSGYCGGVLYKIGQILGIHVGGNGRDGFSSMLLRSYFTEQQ
T4 sequence (P07210 1522-1704): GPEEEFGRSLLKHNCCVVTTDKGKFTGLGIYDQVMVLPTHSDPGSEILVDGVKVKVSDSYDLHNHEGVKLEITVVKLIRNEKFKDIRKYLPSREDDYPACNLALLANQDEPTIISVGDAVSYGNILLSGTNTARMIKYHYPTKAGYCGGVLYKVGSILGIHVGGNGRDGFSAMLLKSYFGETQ

With `CCOC(=O)/C=C/[C@H](C[C@@H]1CCNC1=O)NC(=O)c1ccc2ccccc2c1` [Compound 1, 4S-[(naphthalene-2-carbonyl)-amino]-5-(2-oxo-pyrrolidin-3S-yl)-pent-2-enoic acid ethyl ester], the kinact/KI is 110 M⁻¹ s⁻¹ in series [1] and 1090 M⁻¹ s⁻¹ in [3]. Further, the EC50 in the series with HRV-14 (setting [6]) came to 150 nM; with HRV-2 it was 1350 nM. In series [2], the CC50 at 2 days was above 100 µM.
As to `CCOC(=O)/C=C/[C@H](C[C@@H]1CCNC1=O)NC(=O)C1=Cc2cc(Cl)ccc2OC1` [Compound 44, 4S-[(6-Chloro-2H-chromene-3-carbonyl)-amino]-5-(2-oxo-pyrrolidin-3S-yl)-pent-2-enoic acid ethyl ester], the kinact/KI was determined as 385 M⁻¹ s⁻¹ in series [1], 2200 M⁻¹ s⁻¹ in series [4], 800 M⁻¹ s⁻¹ in series [5] and 19700 M⁻¹ s⁻¹ in series [3]. The EC50 in the series on HRV-14 (setting [6]) was determined as 160 nM; with HRV-10 it was 459 nM; in the series on HRV-2, 645 nM; with HRV-1A, 5.1 µM. Further, the 50% cytotoxic concentration (CC50) at 2 days in [2] was above 100 µM.
As to `CCOC(=O)/C=C/[C@H](C[C@@H]1CCNC1=O)NC(=O)c1ccc2ccc(Br)cc2c1` [Compound 53, 4S-[(7-Bromo-naphthalene-2-carbonyl)-amino]-5-(2-oxo-pyrrolidin-3S-yl)-pent-2-enoic acid ethyl ester], the kinact/KI in series [1] is 385 M⁻¹ s⁻¹; in [3] it was 31400 M⁻¹ s⁻¹. In addition, the 50% effective concentration (EC50) with HRV-14 (setting [6]) came out at 184 nM; with HRV-10 it was 546 nM; in the series on HRV-2 it was 422 nM; in the series on HRV-1A, 4.18 µM. Besides, in series [2], the 50% cytotoxic concentration (CC50) at 2 days worked out at 56.2 µM.
As to `Cc1cc(CCCCCCCOc2ccc(C3=NCCO3)cc2)on1` [WIN 51711, reference compound], the EC50 in the series on HRV-14 (setting [7]) turned out to be 780 nM. Also, the 50% cytotoxic concentration (CC50) in the series with H1-HeLa cells was above 60 µM.
Taken in the same sequence, the figures for `Cc1cc(CCCCCCCOc2ccc(C3=N[C@@H](C)CO3)cc2)on1` [WIN 52084, reference compound] were 70 nM and above 10 µM.
Regarding `Cc1cc(CCCCCOc2c(Cl)cc(C3=NCCO3)cc2Cl)on1` [WIN 54954, reference compound], the EC50 in the series with HRV-14 (setting [7]) was 2130 nM. Besides, the CC50 with H1-HeLa cells is above 63 µM.
